According to patent US5422350A, “Nitrogen substituted acridine and cytochrome P450 inhibitors and methods of use” (priority 1992, dated 1995):

How the values were obtained:
[1] = cited from earlier work
[2] = Clinical drug interaction study, tacrine with cimetidine; assay type: in vivo, human; settings: 40 mg tacrine with 300-mg four times a day cimetidine vs tacrine alone
Description: A. Somogyi and M. Muirhead, "Pharmacokinetic Interactions of Cimetidine", CLIN. PHARMACOKIN., Vol. 12, pp. 321-366 (1987).

[3] = test system: rat hepatocytes; experiment: Irreversible binding of tacrine-derived radioactivity to rat hepatocytes with chloroquine; assay type: in vitro ADME; settings: Tacrine alone
Description: D. J. Back, H. S. Purba, C. […] PHARMACOL., Vol. 32, pp. 257-264 (1983). Ethoxyresorufin O-deethylation is selectively catalyzed by P450 1A2. C. Gleizes, C. […] PHARMACOL. VOL. 41, pp. 1813-1820 (1991).

Structure (SMILES): Cl.Nc1c2c(nc3ccccc13)CCCC2.O [Tacrine, 1,2,3,4-tetrahydro-9-acridinamine monohydrate monohydrochloride]
- extent of metabolism ([1]; animals and man): extensively metabolized
- formation of THA metabolites in serum ([1]; patients given THA): very rapid formation of THA metabolites
- liver enzymes after administration ([1]; patients): elevations of liver enzymes are found in some patients
- higher plasma concentrations [2]: approximately 40%
- tacrine-equivalents bound per mg hepatic protein ([3]; 5 min, N = 2): 0.020 nmol
- tacrine-equivalents bound per mg hepatic protein ([3]; 15 min): 0.037 nmol
- tacrine-equivalents bound per mg hepatic protein ([3]; 30 min): 0.061 nmol
- tacrine-equivalents bound per mg hepatic protein ([3]; 60 min): 0.128 nmol
- tacrine-equivalents bound per mg hepatic protein ([3]; 90 min): 0.183 nmol
- tacrine-equivalents bound per mg hepatic protein ([3]; 120 min): 0.294 nmol
- tacrine-equivalents bound per mg hepatic protein ([3]; 180 min): 0.377 nmol
